Measured values reported in patent US20190085024A1, “Alpha-Ketoamide Inhibitors Of Cysteine Proteases” (Phelix Therapeutics, priority 2017, published 2019).
*1 amine or outer side, *2 acyl side, *3 side chain or, on linkers, in order; H or OH if unused. Where a SMILES comes first, the peptide text is derived from it. [ ]: non-standard residue; d: D form. 2Nal = N[CH](Cc1ccc2ccccc2c1)C(=O)O; X1 = CCC(C)C(N[*:1])C(=O)C(=O)[*:2]

Tests used:
[1] = biological target: Cathepsin L (Homo sapiens, UniProt P07711); assay: Cathepsin L enzyme assay; type: biochemical; settings: Ki by Morrison equation; pH 5.5, substrate Z-Phe-Arg-Amc; read-out: Cat L
From the text: Two wells contained DMSO only for controls.
Velocity was converted to μM/sec.

[2] = biological target: Calpain; assay: Calpain enzyme assay; type: biochemical; settings: Ki by Morrison equation; pH 7.5, 5 mM CaCl2

Cathepsin L, sequence (P07711 114-333, species assumed): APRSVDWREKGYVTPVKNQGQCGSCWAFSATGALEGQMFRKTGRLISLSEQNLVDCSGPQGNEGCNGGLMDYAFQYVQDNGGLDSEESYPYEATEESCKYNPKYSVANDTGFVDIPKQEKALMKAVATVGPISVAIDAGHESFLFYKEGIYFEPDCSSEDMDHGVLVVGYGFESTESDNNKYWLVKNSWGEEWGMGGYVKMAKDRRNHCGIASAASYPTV

Ki [1] [µM] | Ki [2] [µM] | Structure (SMILES)
210 | – | CCC(C)C(NC(=O)C(=O)CCNC(=O)Cc1ccccc1)C(=O)NC(C)(C)C(=O)O (centres unmarked) [PHELIX133, 2-methyl-2-(3-methyl-2-(2-oxo-4-(2-phenylacetamido)butanamido)pentanamido)propanoic acid]
– | > 10 | CC(NC(=O)C(Cc1ccccc1)NC(=O)Cc1ccccc1)C(=O)C(=O)NC(Cc1ccccc1)C(=O)NC(Cc1ccc(-c2ccccc2)cc1)C(N)=O (centres unmarked) [PHELIX213, N-(1-((3-([1,1′-biphenyl]-4-yl)-1-amino-1-oxopropan-2-yl)amino)-1-oxo-3-phenylpropan-2-yl)-2-oxo-3-(3-phenyl-2-(2-phenylacetamido)propanamido)butanamide]
1080 | > 100 | CCC(C)C(NC(=O)C(=O)C(C)NC(=O)C(Cc1ccccc1)NC(=O)Cc1ccccc1)C(=O)NC1(C(=O)O)CCCC1 (centres unmarked) [PHELIX217, 1-(3-methyl-2-(2-oxo-3-(3-phenyl-2-(2-phenylacetamido)propanamido)butanamido)pentanamido)cyclopentane-1-carboxylic acid]
> 1000 | – | CCC(C)C(NC(=O)C(=O)CCNC(=O)C(Cc1ccccc1)NC(=O)Cc1ccccc1)C(=O)NC(C)(C)C(=O)O (centres unmarked) [PHELIX218, 13-benzyl-5-(sec-butyl)-2,2-dimethyl-4,7,8,12,15-pentaoxo-16-phenyl-3,6,11,14-tetraazahexadecanoic acid]
– | > 10 | CC(NC(=O)C(Cc1ccccc1)NC(=O)Cc1ccccc1)C(=O)C(=O)NC(Cc1ccccc1)C(=O)NC(Cc1ccc(-c2ccccc2)cc1)C(N)=O (centres unmarked) [PHELIX247, N-(1-((3-([1,1′-biphenyl]-4-yl)-1-amino-1-oxopropan-2-yl)amino)-1-oxo-3-phenylpropan-2-yl)-2-oxo-3-(3-phenyl-2-(2-phenylacetamido)propanamido)butanamide]
– | > 10 | CC(NC(=O)C(Cc1ccccc1)NC(=O)Cc1ccccc1)C(=O)C(=O)NC(Cc1ccccc1)C(=O)NC(Cc1ccc(-c2ccccc2)cc1)C(N)=O (centres unmarked) [PHELIX248, N-(1-((3-([1,1′-biphenyl]-4-yl)-1-amino-1-oxopropan-2-yl)amino)-1-oxo-3-phenylpropan-2-yl)-2-oxo-3-(3-phenyl-2-(2-phenylacetamido)propanamido)butanamide]
– | 0.00092 | CCC(C)C(NC(=O)C(CC(C)C)NC(=O)OCc1ccccc1)C(=O)C(=O)NCC(=O)NC(Cc1ccc2ccccc2c1)C(N)=O (centres unmarked) [PHELIX257, benzyl (1-((1-((2-((1-amino-3-(naphthalen-2-yl)-1-oxopropan-2-yl)amino)-2-oxoethyl)amino)-4-methyl-1,2-dioxohexan-3-yl)amino)-4-methyl-1-oxopentan-2-yl)carbamate]
< 0.0002 | 0.0205 | CCC(C)C(NC(=O)C(CC(C)C)NC(=O)OCc1ccccc1)C(=O)C(=O)NC(CCCNC(=N)N)C(=O)NC(Cc1ccc2ccccc2c1)C(N)=O (centres unmarked) [PHELIX289, benzyl (1-((1-((1-((1-amino-3-(naphthalen-2-yl)-1-oxopropan-2-yl)amino)-5-guanidino-1-oxopentan-2-yl)amino)-4-methyl-1,2-dioxohexan-3-yl)amino)-4-methyl-1-oxopentan-2-yl)carbamate]
0.0027 | 0.00727 | CC[C@H](C)C(NC(=O)[C@H](CC(C)C)NC(=O)OCc1ccccc1)C(=O)C(=O)N[C@@H](CCCNC(=N)N)C(N)=O (some centres unmarked) [PHELIX290, benzyl (1-((1-((1-amino-5-guanidino-1-oxopentan-2-yl)amino)-4-methyl-1,2-dioxohexan-3-yl)amino)-4-methyl-1-oxopentan-2-yl)carbamate]
5.91 | > 10 | CCC(C)C(NC(=O)C(CC(C)C)NC(=O)OCc1ccccc1)C(=O)C(=O)N(C)CC(=O)NC(Cc1ccc2ccccc2c1)C(N)=O (centres unmarked) [PHELIX291, benzyl (1-((1-((2-((1-amino-3-(naphthalen-2-yl)-1-oxopropan-2-yl)amino)-2-oxoethyl)(methyl)amino)-4-methyl-1,2-dioxohexan-3-yl)amino)-4-methyl-1-oxopentan-2-yl)carbamate]
0.0371 | 4.3 | CCC(C)C(C(=O)C(=O)NCC(=O)NC(Cc1ccc2ccccc2c1)C(N)=O)N(C)C(=O)C(CC(C)C)NC(=O)OCc1ccccc1 (centres unmarked) [PHELIX292, benzyl (1-((1-((2-((1-amino-3-(naphthalen-2-yl)-1-oxopropan-2-yl)amino)-2-oxoethyl)amino)-4-methyl-1,2-dioxohexan-3-yl)(methyl)amino)-4-methyl-1-oxopentan-2-yl)carbamate]
– | 1.19 | CCC(C)C(NC(=O)C(CC(C)C)NC(=O)OCc1ccccc1)C(=O)C(=O)NCC(=O)NC(Cc1ccc2ccccc2c1)C(N)=O (centres unmarked) [PHELIX293, benzyl (1-((1-((2-((1-amino-3-(naphthalen-2-yl)-1-oxopropan-2-yl)amino)-2-oxoethyl)amino)-4-methyl-1,2-dioxohexan-3-yl)amino)-4-methyl-1-oxopentan-2-yl)carbamate]
0.00084 | 0.00205 | CCC(C)C(NC(=O)C(CC(C)C)NC(=O)OCc1ccccc1)C(=O)C(=O)NC(C)C(=O)NC(Cc1ccc2ccccc2c1)C(N)=O (centres unmarked) [PHELIX295, benzyl (1-((1-((1-((1-amino-3-(naphthalen-2-yl)-1-oxopropan-2-yl)amino)-1-oxopropan-2-yl)amino)-4-methyl-1,2-dioxohexan-3-yl)amino)-4-methyl-1-oxopentan-2-yl)carbamate]
1.72 | 1.55 | CCC(C)C(NC(=O)C(CC(C)C)NC(=O)OCc1ccccc1)C(=O)C(=O)NC(C)(C)C(=O)NC(Cc1ccc2ccccc2c1)C(N)=O (centres unmarked) [PHELIX296, benzyl (1-((1-((1-((1-amino-3-(naphthalen-2-yl)-1-oxopropan-2-yl)amino)-2-methyl-1-oxopropan-2-yl)amino)-4-methyl-1,2-dioxohexan-3-yl)amino)-4-methyl-1-oxopentan-2-yl)carbamate]
0.315 | 2.57 | CCC(C)C(NC(=O)C(CC(C)C)NC(=O)OCc1ccccc1)C(=O)C(=O)NC1(C(=O)NC(Cc2ccc3ccccc3c2)C(N)=O)CC1 (centres unmarked) [PHELIX298, benzyl (1-((1-((1-((1-amino-3-(naphthalen-2-yl)-1-oxopropan-2-yl)carbamoyl)cyclopropyl)amino)-4-methyl-1,2-dioxohexan-3-yl)amino)-4-methyl-1-oxopentan-2-yl)carbamate]
0.0123 | 0.00483 | CCC(C)C(NC(=O)C(CC1CC1)NC(=O)OCc1ccccc1)C(=O)C(=O)NCC(=O)NC(Cc1ccc2ccccc2c1)C(N)=O (centres unmarked) [PHELIX299, benzyl (1-((1-((2-((1-amino-3-(naphthalen-2-yl)-1-oxopropan-2-yl)amino)-2-oxoethyl)amino)-4-methyl-1,2-dioxohexan-3-yl)amino)-3-cyclopropyl-1-oxopropan-2-yl)carbamate]
0.389 | 0.201 | CCC(C)C(NC(=O)C(Cc1c[nH]cn1)NC(=O)Cc1ccccc1)C(=O)C(=O)NCC(=O)NC(Cc1ccc2ccccc2c1)C(N)=O (centres unmarked) [PHELIX302, 3-(3-(1H-imidazol-4-yl)-2-(2-phenylacetamido)propanamido)-N-(2-((1-amino-3-(naphthalen-2-yl)-1-oxopropan-2-yl)amino)-2-oxoethyl)-4-methyl-2-oxohexanamide]
0.00114 | 0.00603 | CCC(C)C(NC(=O)C(CC(C)C)NC(=O)OCc1ccccc1)C(=O)C(=O)NCC(=O)NCc1ccc2ccccc2c1 (centres unmarked) [PHELIX303, benzyl (4-methyl-1-((4-methyl-1-((2-((naphthalen-2-ylmethyl)amino)-2-oxoethyl)amino)-1,2-dioxohexan-3-yl)amino)-1-oxopentan-2-yl)carbamate]
– | 0.00261 | CCC(C)C(NC(=O)C(CC(C)C)NC(C)=O)C(=O)C(=O)NCC(=O)NC(Cc1ccc2ccccc2c1)C(N)=O (centres unmarked) [PHELIX307, 3-(2-acetamido-4-methylpentanamido)-N-(2-((1-amino-3-(naphthalen-2-yl)-1-oxopropan-2-yl)amino)-2-oxoethyl)-4-methyl-2-oxohexanamide]
– | 0.0055 | CCC(C)C(NC(=O)C(CC(C)C)NC(C)=O)C(=O)C(=O)NCC(=O)NC(Cc1ccc2ccccc2c1)C(N)=O (centres unmarked) [PHELIX310]
2.88 | – | CCC(C)C(NC(=O)CNC(=O)C(Cc1ccc2ccccc2c1)NC(C)=O)C(=O)C(=O)NC(CC(C)C)C(=O)NC(Cc1ccccc1)C(N)=O (centres unmarked) [PHELIX338, 3-(2-(2-acetamido-3-(naphthalen-2-yl)propanamido)acetamido)-N-(1-((1-amino-1-oxo-3-phenylpropan-2-yl)amino)-4-methyl-1-oxopentan-2-yl)-4-methyl-2-oxohexanamide] (Ac-[2Nal]G[X1]LF-NH2; configuration not given here)
> 1 | – | CCC(C)C(NC(=O)C(CC(C)C)NC(=O)OCc1ccccc1)C(=O)C(=O)N(C)C(Cc1ccccc1)C(N)=O (centres unmarked) [PHELIX358, benzyl (1-((1-((1-amino-1-oxo-3-phenylpropan-2-yl)(methyl)amino)-4-methyl-1,2-dioxohexan-3-yl)amino)-4-methyl-1-oxopentan-2-yl)carbamate]

Structure (SMILES) | Ki [1] [µM] | Ki [2] [µM]
CC(NC(=O)C(Cc1ccccc1)NC(=O)Cc1ccccc1)C(=O)C(=O)NC(Cc1ccccc1)C(=O)NC(Cc1ccc2ccccc2c1)C(N)=O (centres unmarked) [PHELIX216, N-(1-((1-amino-3-(naphthalen-2-yl)-1-oxopropan-2-yl)amino)-1-oxo-3-phenylpropan-2-yl)-2-oxo-3-(3-phenyl-2-(2-phenylacetamido)propanamido)butanamide] | > 1000 | > 100
CCC(C)C(NC(=O)C(CC(C)C)NC(=O)C(Cc1ccccc1)NC(=O)OCc1ccccc1)C(=O)C(=O)NC(CCCNC(=N)N)C(N)=O (centres unmarked) [PHELIX294, benzyl (1-amino-10-(sec-butyl)-6-carbamoyl-1-imino-13-isobutyl-8,9,12,15-tetraoxo-17-phenyl-2,7,11,14-tetraazaheptadecan-16-yl)carbamate] | 0.00253 | 0.00049
CC(C)CC(NC(=O)C(Cc1ccccc1)NC(=O)OCc1ccccc1)C(=O)NC(Cc1ccccc1)C(=O)C(=O)NC(CCCNC(=N)N)C(N)=O (centres unmarked) [PHELIX339, benzyl (1-amino-10-benzyl-6-carbamoyl-1-imino-13-isobutyl-8,9,12,15-tetraoxo-17-phenyl-2,7,11,14-tetraazaheptadecan-16-yl)carbamate] | – | 0.00218
